This note sets out measurements from PubChem BioAssay (NCI).

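1) Cells in 96-well plates. 2) Compound, 48 h, 5 concentrations. 3) Linear interpolation between surrounding doses. 4) Unreached endpoint = highest concentration. TGI marks complete inhibition of growth.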 Where only a bound is given, the exact number is not on record here.

Test systems include CAKI-1 renal; IGROV1 ovarian; K-562 leukemia; M14 melanoma; MALME-3M melanoma; OVCAR-5 ovarian; SF-268 CNS; SNB-19 CNS; EKVX NSCLC.
What all share (experiment): NCI tumour cell line growth inhibition, 48 h

As for `O=C(Nc1c(O)[nH]c(=S)[nH]c1=O)c1ccccc1F`, the TGI in the assay with CAKI-1 renal, in the assay with IGROV1 ovarian, with K-562 leukemia, in the assay on M14 melanoma, with MALME-3M melanoma and in the assay with OVCAR-5 ovarian was over 100 µM throughout. For the same molecule, the TGI with SF-268 CNS and in the assay with SNB-19 CNS was over 100 µM in each case.
As to `Cc1ccc(NC(=O)c2cc3cc(N=Nc4ccc(Br)cc4)ccc3oc2=O)cc1`, the TGI in the assay with CAKI-1 renal, in the assay on MALME-3M melanoma, with OVCAR-5 ovarian, in the assay with SF-268 CNS and in the assay with SNB-19 CNS was over 100 µM each time.
In the case of `CCOc1ccccc1NC(=O)CC1C(=O)Nc2ccccc2S1=O` (stereo not given), the TGI with CAKI-1 renal, in the assay on EKVX NSCLC, in the assay with IGROV1 ovarian, in the assay on K-562 leukemia, in the assay with M14 melanoma and in the assay on MALME-3M melanoma was over 100 µM each time. Moreover, the TGI in the assay on OVCAR-5 ovarian, in the assay with SF-268 CNS and with SNB-19 CNS was over 100 µM in each case.
Regarding `ON/N=C/c1cc2c(cc1Br)OCO2`, the TGI with CAKI-1 renal, with EKVX NSCLC, in the assay with IGROV1 ovarian, in the assay on K-562 leukemia, in the assay with MALME-3M melanoma and in the assay with OVCAR-5 ovarian was over 386 µM in each case. The TGI in the assay on SF-268 CNS and with SNB-19 CNS was over 386 µM in each case.
For the molecule `Cc1cn(Cc2ccccc2CCO)c(=S)[nH]c1=O`, the TGI in the assay with CAKI-1 renal, in the assay with EKVX NSCLC, with IGROV1 ovarian, in the assay on K-562 leukemia, in the assay with M14 melanoma and in the assay with MALME-3M melanoma was over 100 µM throughout. Further, the TGI in the assay with OVCAR-5 ovarian, in the assay with SF-268 CNS and with SNB-19 CNS was over 100 µM throughout.
As for `COc1ccc(C2CC(=O)c3c(O)cc(O)cc3O2)cc1O` (stereo not given), the TGI in the assay with CAKI-1 renal, in the assay with EKVX NSCLC, with IGROV1 ovarian, with K-562 leukemia, in the assay on M14 melanoma and with MALME-3M melanoma was over 100 µM each time. The TGI in the assay on OVCAR-5 ovarian, in the assay with SF-268 CNS and in the assay on SNB-19 CNS was over 100 µM in each case.
`CC(C)/C=C1\CCC(CN2CCCC2)C1=O` (stereo not given): the TGI with CAKI-1 renal is 10.2 µM; with EKVX NSCLC, 40 µM; in the assay on IGROV1 ovarian it was over 62.5 µM; in the assay with K-562 leukemia, 11.9 µM; with M14 melanoma, 24.2 µM; in the assay on MALME-3M melanoma, 17.1 µM. Further, the TGI in the assay with OVCAR-5 ovarian is 35.2 µM; in the assay on SF-268 CNS it was 43.6 µM; in the assay with SNB-19 CNS it was over 64.2 µM.
Consider `CN1C(=O)CC(c2cccc(C3CC(=O)N(C)C3=O)n2)C1=O` (stereo not given), for which the TGI with CAKI-1 renal, with EKVX NSCLC, in the assay with IGROV1 ovarian, with K-562 leukemia, in the assay on M14 melanoma and with MALME-3M melanoma was over 100 µM throughout. For the same molecule, the TGI in the assay with OVCAR-5 ovarian, in the assay with SF-268 CNS and in the assay on SNB-19 CNS was over 100 µM throughout.
Turning to `COc1cc(/C=C/c2ccncc2)cc(OC)c1OC`, the TGI in the assay on CAKI-1 renal, with EKVX NSCLC, with IGROV1 ovarian, in the assay with K-562 leukemia, with M14 melanoma and in the assay with MALME-3M melanoma was over 100 µM each time. For the same molecule, the figures for the TGI with OVCAR-5 ovarian, in the assay on SF-268 CNS and in the assay on SNB-19 CNS were 97.9 µM, over 100 µM and over 100 µM, respectively.
For the molecule `CC(C)(C)OC1=C(OC(C)(C)C)C(O)(c2ccccc2)C1=O` (stereo not given), the TGI with EKVX NSCLC, in the assay with IGROV1 ovarian, with K-562 leukemia, in the assay with M14 melanoma, in the assay with MALME-3M melanoma and with OVCAR-5 ovarian was over 100 µM throughout. Further, the TGI with SF-268 CNS and in the assay on SNB-19 CNS was over 100 µM each time.
On to `OC1[C@H]([C@H]2CCCC[C@@H]2O)CCC[C@@H]1[C@@H]1CCCC[C@H]1O` (stereo not given in full), for which the TGI in the assay on CAKI-1 renal, with EKVX NSCLC, in the assay with IGROV1 ovarian, in the assay with K-562 leukemia, in the assay with M14 melanoma and in the assay with MALME-3M melanoma was over 100 µM in each case. The TGI in the assay on OVCAR-5 ovarian, in the assay on SF-268 CNS and with SNB-19 CNS was over 100 µM throughout.
As to `O=C(Nc1ccccc1-c1n[nH]c(=S)[nH]c1=O)C(F)(F)F`, the TGI in the assay with CAKI-1 renal, in the assay with EKVX NSCLC, in the assay with IGROV1 ovarian, in the assay with K-562 leukemia, with M14 melanoma and with MALME-3M melanoma was over 100 µM each time. The TGI in the assay on OVCAR-5 ovarian, in the assay on SF-268 CNS and in the assay with SNB-19 CNS was over 100 µM throughout.
For the molecule `COC(=O)C1=C(c2ccc(OC)c(OC)c2)OC(c2ccc(OC)c(OC)c2)C1` (stereo not given), the TGI is over 100 µM in the assay with EKVX NSCLC; over 100 µM in the assay on IGROV1 ovarian; over 100 µM in the assay with K-562 leukemia; over 100 µM in the assay with M14 melanoma; 69.3 µM in the assay on MALME-3M melanoma; over 100 µM in the assay on OVCAR-5 ovarian. The TGI in the assay with SF-268 CNS is over 100 µM.
With `Cc1cc(N(CCC#N)CCC#N)ccc1/C=C1N=C(/C=C\c2ccccc2)OC\1=O`, the TGI with CAKI-1 renal, in the assay with EKVX NSCLC, in the assay with IGROV1 ovarian, with K-562 leukemia, in the assay on M14 melanoma and in the assay with MALME-3M melanoma was over 100 µM throughout. Besides, the TGI with OVCAR-5 ovarian, with SF-268 CNS and with SNB-19 CNS was over 100 µM throughout.
With `CS/C(=N\C(=S)N(C)C)N(c1ccccc1)c1nc(=[N+](C)C)ss1`, the TGI in the assay with CAKI-1 renal is 80.2 µM; with EKVX NSCLC, 49.3 µM; in the assay with IGROV1 ovarian it was over 100 µM; in the assay with K-562 leukemia it was 12.5 µM; in the assay on M14 melanoma, 16.7 µM; with MALME-3M melanoma, 7.44 µM. For the same molecule, the TGI with SF-268 CNS is 26.4 µM; in the assay with SNB-19 CNS, over 100 µM.
